Test results published in the CheMixHub viscosity set.

Assay: xn = mol fraction of the nth substance listed

CCN(CC)S(C)(=O)=O + CCO
303.15 K, 101.33 kPa
Conditions | viscosity [mPa·s]
x1 = 0.0656 | 100000
x1 = 0.1402 | 106700
x1 = 0.2228 | 117500
x1 = 0.2849 | 127400
x1 = 0.3659 | 142400
x1 = 0.4606 | 163500
x1 = 0.5135 | 176500
x1 = 0.5968 | 200200
x1 = 0.6622 | 221700
x1 = 0.743 | 253300
x1 = 0.8454 | 302600
x1 = 0.9395 | 359700

CS(C)=O + CCO
Conditions | viscosity [mPa·s]
293.15 K, 100 kPa, x2 = 0.08 | 2.021
293.15 K, 100 kPa, x2 = 0.16 | 1.873
293.15 K, 100 kPa, x2 = 0.23 | 1.756
293.15 K, 100 kPa, x2 = 0.3 | 1.666
293.15 K, 100 kPa, x2 = 0.36 | 1.572
298.15 K, 100 kPa, x2 = 0.08 | 1.828
298.15 K, 100 kPa, x2 = 0.16 | 1.701
298.15 K, 100 kPa, x2 = 0.23 | 1.598
298.15 K, 100 kPa, x2 = 0.3 | 1.517
298.15 K, 100 kPa, x2 = 0.36 | 1.436
298.15 K, 101 kPa, x1 = 0.061 | 1.182
298.15 K, 101 kPa, x1 = 0.2 | 1.291
298.15 K, 101 kPa, x1 = 0.37 | 1.466
298.15 K, 101.3 kPa, x1 = 0.0616 | 1.015
298.15 K, 101.3 kPa, x1 = 0.1286 | 1.021
298.15 K, 101.3 kPa, x1 = 0.2019 | 1.022
298.15 K, 101.3 kPa, x1 = 0.2801 | 1.056
298.15 K, 101.3 kPa, x1 = 0.3708 | 1.114
298.15 K, 101.3 kPa, x1 = 0.4693 | 1.187
298.15 K, 101.3 kPa, x1 = 0.5814 | 1.298
298.15 K, 101.3 kPa, x1 = 0.7023 | 1.454
298.15 K, 101.3 kPa, x1 = 0.7609 | 1.538
298.15 K, 101.3 kPa, x1 = 0.8414 | 1.657
298.15 K, 101.3 kPa, x1 = 0.933 | 1.851
298.15 K, 101.31 kPa, x1 = 0.1026 | 1.034
298.15 K, 101.31 kPa, x1 = 0.1971 | 1.029
298.15 K, 101.31 kPa, x1 = 0.2892 | 1.061
298.15 K, 101.31 kPa, x1 = 0.4043 | 1.137
298.15 K, 101.31 kPa, x1 = 0.5029 | 1.234
298.15 K, 101.31 kPa, x1 = 0.62 | 1.352
298.15 K, 101.31 kPa, x1 = 0.7117 | 1.491
298.15 K, 101.31 kPa, x1 = 0.8036 | 1.634
298.15 K, 101.31 kPa, x1 = 0.9017 | 1.807
299 K, 101 kPa, x1 = 0.0519 | 1.711
299 K, 101 kPa, x1 = 0.1593 | 1.696
299 K, 101 kPa, x1 = 0.3301 | 1.895
299 K, 101 kPa, x1 = 0.451 | 2.099
299 K, 101 kPa, x1 = 0.5779 | 2.34
299 K, 101 kPa, x1 = 0.7807 | 2.572
303.15 K, 100 kPa, x2 = 0.16 | 1.552
303.15 K, 100 kPa, x2 = 0.3 | 1.39
303.15 K, 100 kPa, x2 = 0.36 | 1.317
303.15 K, 101 kPa, x1 = 0.2 | 1.191
303.15 K, 101 kPa, x1 = 0.2004 | 1.205
303.15 K, 101 kPa, x1 = 0.37 | 1.366
303.15 K, 101.3 kPa, x1 = 0.0616 | 0.966
303.15 K, 101.3 kPa, x1 = 0.1286 | 0.932
303.15 K, 101.3 kPa, x1 = 0.2019 | 0.884
303.15 K, 101.3 kPa, x1 = 0.2801 | 0.904
303.15 K, 101.3 kPa, x1 = 0.3708 | 0.938
303.15 K, 101.3 kPa, x1 = 0.4693 | 1.064
303.15 K, 101.3 kPa, x1 = 0.5814 | 1.201
303.15 K, 101.3 kPa, x1 = 0.7023 | 1.354
303.15 K, 101.3 kPa, x1 = 0.7609 | 1.481
303.15 K, 101.3 kPa, x1 = 0.933 | 1.685
308.15 K, 100 kPa, x2 = 0.16 | 1.426
308.15 K, 100 kPa, x2 = 0.3 | 1.28
308.15 K, 100 kPa, x2 = 0.36 | 1.213
308.15 K, 101 kPa, x1 = 0.061 | 1.002
308.15 K, 101 kPa, x1 = 0.2 | 1.091
308.15 K, 101 kPa, x1 = 0.37 | 1.266
308.15 K, 101.31 kPa, x1 = 0.1026 | 0.882
308.15 K, 101.31 kPa, x1 = 0.1971 | 0.893
308.15 K, 101.31 kPa, x1 = 0.2892 | 0.916
308.15 K, 101.31 kPa, x1 = 0.4043 | 0.981
308.15 K, 101.31 kPa, x1 = 0.5029 | 1.056
308.15 K, 101.31 kPa, x1 = 0.62 | 1.159
308.15 K, 101.31 kPa, x1 = 0.7117 | 1.26
308.15 K, 101.31 kPa, x1 = 0.8036 | 1.375
308.15 K, 101.31 kPa, x1 = 0.9017 | 1.511
313.15 K, 100 kPa, x2 = 0.08 | 1.402
313.15 K, 100 kPa, x2 = 0.16 | 1.312
313.15 K, 100 kPa, x2 = 0.23 | 1.237
313.15 K, 100 kPa, x2 = 0.3 | 1.181
313.15 K, 100 kPa, x2 = 0.36 | 1.121
318.15 K, 101.31 kPa, x1 = 0.1026 | 0.745
318.15 K, 101.31 kPa, x1 = 0.1971 | 0.753
318.15 K, 101.31 kPa, x1 = 0.2892 | 0.782
318.15 K, 101.31 kPa, x1 = 0.4043 | 0.835
318.15 K, 101.31 kPa, x1 = 0.5029 | 0.908
318.15 K, 101.31 kPa, x1 = 0.62 | 0.994
318.15 K, 101.31 kPa, x1 = 0.7117 | 1.067
318.15 K, 101.31 kPa, x1 = 0.8036 | 1.171
318.15 K, 101.31 kPa, x1 = 0.9017 | 1.28
323.15 K, 101 kPa, x1 = 0.8011 | 1.125

C[N+](C)(C)CCC[n+]1ccccc1.N#C[N-]C#N.N#C[N-]C#N + CCO
viscosity [mPa·s], 100 kPa
Conditions | 293.15 K | 313.15 K | 323.15 K
x1 = 0.7003 | – | – | 75.75
x1 = 0.7998 | 614.5 | 161.5 | 99.22
